From US8642660B2, “Method for altering the lifespan of eukaryotic organisms” (The University of Rochester, priority 2007, dated 2014)

Columns and labels:
yeast cells [1] = assay: "775" DeaD assay, single-concentration screen for countering nicotinamide lifespan shortening; format: cell-based, Saccharomyces cerevisiae; set-up: key: compounds that exhibited >26% inhibition are defined as active; Compounds that exhibited <=26% inhibition are defined as inactive; conditions: compounds 10 uM, 1.5 mM nicotinamide, 48 hours, OD615
Text: Having established the suitability of the DeaD assay as a proxy for microdissection, the DeaD assay was used to screen a 132,796 compound library for the ability of compounds in the library to counter the lifespan-shortening effect of nicotinamide.
Specifically, as described in the AID 775 assay results (synonymously, the “775” assay results) on the “PubChem” website at pubchem.ncbi.nlm.nih.gov/assay/assay.cgi?aid=775, the contents of which are herein incorporated in their entirety by reference, the percent inhibition of nicotinamide lifespan shortening, i.e. percent reversal of nicotinamide effect on lifespan, was calculated using the optical density in control wells with cells treated with 1.5 mM nicotinamide as full lifespan shortening effect of nicotinamide (0% inhibition of nicotinamide), and wells with cells grown in medium without nicotinamide as an indicator of 100% inhibition. The appropriate compounds in the PubChem compound library (about 132,000 compounds selected from the total library of about 10 million compounds) were screened at 10 uM in the presence of 1.5 mM nicotinamide. For further details, see, e.g., the following references: Jarolim, S., Millen, J., Heeren, G., Laun, P., Goldfarb, D. S. and M. Breitenbach. (2004). A novel assay for replicative lifespan in Saccharomyces cerevisiae. FEMS Yeast Res. 5, 169-177; Bitterman, K. J., Anderson, R. M., Cohen, H. Y., Latorre-Esteves, M., and D. A. Sinclair. (2002). Inhibition of silencing and accelerated aging by nicotinamide, a putative negative regulator of yeast Sir2 and human SIRT1. J. Biol. Chem. 277, 45099-45107; Tsuchiya, M., Dang, N., Kerr, E. O., Hu, D., Steffen, K. K., Oakes, J. A., Kennedy, B. K. and M. Kaeberlein (2006) Sirtuin-independent effects of nicotinamide on lifespan extension from calorie restriction in yeast. Aging Cell. 5, 505-514.
Assays were conducted as follow. Cells were streaked out on a YPGal agar plate and grown for 48 hours at 30° C. Four colonies were selected, 50 mL of YPGal medium in a flask was inoculated and grown at 30° C. with shaking O/N. OD600 was measured. The OD should be <0.7 for the cells to be in log phase. The cells were centrifuged, washed once and resuspended in CSMM-D restrictive growth medium. OD600 was measured again. The culture was diluted to an OD600 of 0.002 in CSMM-D restrictive medium. The culture was pre-incubated in a flask with shaking at 30° C. for 4 hours. At the end of the pre-incubation, OD600 was measured for reference. Nicotinamide (negative control), medium alone (positive control) and compounds in the presence of nicotinamide were plated with DMSO at 10× concentration (final concentrations: nicotinamide 1.5 mM, compounds 10 uM, DMSO 0.25%) in 384-well plates: 5 uL/well. The yeast was added to the plates: 45 uL/well. Plates were incubated at 30 C in a humidified chamber. After 48 hours incubation, plates were shaken for 30 seconds and OD615 was read in an EnVision (PerkinElmer) multilabel plate reader. For these assays, YPGal medium was prepared as 10 grams yeast extract, 20 grams peptone, 900 mL water, autoclave at 121° C. for 15 minutes, add 100 mL sterile 20% (w/v) galactose. CSMM-D (Complete Synthetic Minimal Medium-Dextrose) (restrictive) medium was prepared as 6.7 grams yeast nitrogen base without amino acids, 2.0 grams Drop-out mix complete (DOC) (USBiological Cat. no. D9515), 100 mL 20% (w/v) dextrose, water to 1.0 L, then filter sterilize.
An activity threshold of >26% was calculated as greater than three standard deviations from the median compound inhibition. […] Because of the inherent error in all high-throughput screens including the fallacy of over-interpreting single dose data, a tiered scoring system was adopted for this Example, in which compounds were scored on a scale of 0-40 based on activity, with a scaled activity threshold of 11. Using this tiered scoring system, the compounds were ranked, with 906 of these compounds defined as “active” using this tiered scoring system. […]

DeaD strain BB579 = assay: "809" DeaD assay, dose-response screen (EC50) in presence of nicotinamide; format: cell-based, Saccharomyces cerevisiae; set-up: key: An activity threshold of EC50<=10 uM was set and compounds that met this criterion are defined as active; Compounds that exhibited an EC50>10 uM are defined as inactive; conditions: compounds 0.078-10 uM, 1.5 mM nicotinamide, 48 hours
Procedure: As already discussed, Example 2 provides data using the “775” DeaD assay to determine compounds that counter the lifespan-reducing effects of 1.5 mM nicotinamide, with this Example identifying about 900 “active” compounds. Example 2 used only a single compound concentration of 10 uM; in the current Example, the top 500 of these “active” compounds were again screened using the DeaD assay, but now at 8 concentrations ranging from 0.078 to 10 uM, again in the presence of 1.5 mM nicotinamide, resulting in the data provided in Table 1. This more extensive data allowed for the determination of the half maximal effective concentration (EC50). See the “AID 809” assay (the “809” assay) results on the PubChem website at pubchem.ncbi.nlm.nih.gov/assay/assay.cgi?aid=809.
Thus, in this Example compounds were screened in an 8-point 2-fold dilution series ranging from 0.078 to 10 uM in the presence of 1.5 mM nicotinamide. The percent activation of lifespan, i.e. percent reversal of nicotinamide effect on lifespan, was calculated using the optical density in control wells with cells treated with 1.5 mM nicotinamide as full lifespan shortening effect of nicotinamide (0% activation), and wells with cells grown in medium without nicotinamide as an indicator of 100% activation. From the % activation values of the different compound concentrations, the half maximal effective concentration (EC50) was calculated using IDBS ActivityBase software and XLfit equation 205 for a four parameter logistic fit; the maximum and minimum values were fixed at 100% and 0%.
Assays were conducted as follow. Cells (DeaD strain BB579) were streaked out on a YPGal agar plate and grown for 48 hours at 30° C. Four colonies were selected, 50 mL of YPGal medium in a flask was inoculated and grown at 30 C with shaking O/N. OD600 was measured. The OD should be <0.7 for the cells to be in log phase. […] OD600 was measured again. […] At the end of the pre-incubation, OD600 was measured for reference. […] After 48 hours incubation, plates were shaken for 30 seconds and OD615 was read in an EnVision (PerkinElmer) multilabel plate reader. […]

yeast cells [2] = assay: Full DeaD assay lifespan timecourse (FIG. 3); format: cell-based, Saccharomyces cerevisiae; conditions: 2.5, 5.0, 10 uM, nonpermissive conditions
Procedure: FIG. 3 provides a plot showing DeaD assays for compound SID 855620 (nalidixic acid) in the presence and absence of nicotinamide. The nalidixic acid was incubated with growing cells under nonpermissive conditions at concentrations of 2.5, 5.0, and 10 uM (micromolar) in the presence and absence of 1.5 mM nicotinamide. Control experiments for growth in the presence and absence of nicotinamide without the drug are included. The last three entries showing the line labeling are all results obtained with 1.5 mM nicotinamide and, respectively, 2.5, 5 or 10 uM nalidixic acid. The data lines shown in this figure correspond to (topmost to bottommost as they appear at the extreme right side of the data lines): 2.5, 10, or 5 uM nalidixic acid (no nicotinamide); blank cells (labeled “no NIC”); 5 or 10 uM nalidixic acid plus 1.5 mM nicotinamide (in both cases); 10 uM nalidixic acid (no nicotinamide); and, blank cells with 1.5 mM nicotinamide (labeled “1.5 mM NIC”).
In order to validate the results of the “809” experiment of Example 3, timecourses for the effect of the top 70 compounds identified in Example 3 may be performed using the DeaD assay for, e.g., a 140 hour interval for each of these compounds. […]

yeast cells [3] = assay: Standard microdissection replicative lifespan assay (FIG. 4); format: cell-based, Saccharomyces cerevisiae
Procedure: FIG. 4 provides standard microdissection lifespans for nicotinamide in the presence of nalidixic acid and 5 mM nicotinamide. Three experiments that included three concentrations of nalidixic acid all increased mean lifespans (shown in parentheses) and maximum lifespans. In this Figure, “#864” refers to nalidixic acid, e.g., the second entry in the legend refers to 54 uM nalidixic acid, the third entry refers to 107 uM nalidixic acid, etc. The number presented in parentheses in the figure legend refers to the mean lifespan of the population in each experiment presented in this Figure, e.g., the control population (5 mM nicotinamide only) has a mean lifespan of 14.2 generations, etc.
In order to verify the data of Example 4 for nalidixic acid, microdissection experiments were performed using this compound to counter the effect of nicotinamide, with the results of these experiments shown in FIG. 4.

DeaD strain = assay: DeaD assay validation with nicotinamide (FIG. 2); format: cell-based, Saccharomyces cerevisiae; conditions: 0.5, 0.75, 1 mM NIC
Procedure: Panel A: Under growth in glucose (nonpermissive conditions) DeaD lifespans are reduced in a dose-dependent fashion by increasing concentrations of nicotinamide. […] The lines shown in panel A correspond to (top to bottom) 0, 0.5, 0.75, and 1 mM NIC. The 3 lines visible in panel B correspond to (topmost to bottommost), 0.5, 0.75, or 1 mM NIC; the 0 mM NIC line is not visible.
The DeaD assay was developed as a high throughput proxy for conventional microdissection assays used to determine yeast replicative ageing. In order to verify the ability of this assay to produce results corresponding to conventional microdissection assay results, the data of FIG. 1 were obtained using either the DeaD assay (panel A) or via microdissection (panel B).

C. elegans = conditions: Pnc1 and SIR2-ortholog dependent; Van der Horst et al. 2007; cited from earlier work
[4] = 5 mM nicotinamide, three concentrations of nalidixic acid

SMILES | activity in the 775 assay (percent inhibition of nicotinamide lifespan shortening) (yeast cells [1]) | activity in the 809 assay (EC50) (DeaD strain BB579) | further results
Cc1cc(C2C(=O)C(C(=O)c3ccc(Cl)cc3)C(=O)CC2(C)C)on1 (stereo not shown) [SID 842694] | inactive | – | –
CC1(C)CC(=O)C(C(=O)CCCCC(=O)C2C(=O)CC(C)(C)CC2=O)C(=O)C1 [SID 4245034] | inactive | – | –
CCCC(=O)C1C(=O)CC(C)(C)C(c2cc(C)no2)C1=O (stereo not shown) [SID 7972147] | active | – | –
COC(=O)CCCCC(=O)C1C(=O)CC(C)(C)C(C(=O)OC)C1=O (stereo not shown) [SID 7972920] | inactive | – | –
CCOC(=O)C1C(=O)C(C(C)=O)C(=O)CC1CC(C)SCC (stereo not shown) [SID 14724551] | active | active | –
CCCC(=O)C1C(=O)CC(CC(C)SCC)CC1=O (stereo not shown) [SID 14732512] | active | active | –
CCOc1ccc(CC(=O)C2C(=O)CC(C)(C)CC2=O)cc1OCC [SID 14732962] | inactive | – | –
CC1(C)CC(=O)C(C(=O)Cc2ccccc2[N+](=O)[O-])C(=O)C1 [SID 17511642] | active | active | –
CCn1cc(C(=O)O)c(=O)c2ccc(C)nc21 [nalidixic acid] | – | – | DeaD lifespan (yeast cells [2]; in the absence of nicotinamide): extends DeaD lifespan; DeaD lifespan (yeast cells [2]; in the presence of 1.5 mM nicotinamide): extends DeaD lifespan; maximum lifespan (yeast cells [3]; [4]): increased; mean lifespan (yeast cells [3]; [4]): increased
NC(=O)c1cccnc1 [nicotinamide] | – | – | growth under permissive conditions (DeaD strain; growth in galactose (permissive conditions)): without altering growth; DeaD lifespan (DeaD strain; growth in glucose (nonpermissive conditions)): reduces the lifespan of the DeaD strain in a dose-dependent fashion; mean lifespan (yeast cells [3]; control population, 5 mM nicotinamide only): 14.2 generations; C. elegans lifespan (C. elegans): reduce C. elegans lifespan
